Data on two molecules can be found in patent publication US20260224563A1, “CRYSTALLINE FORMS OF 6-(3-((5-CHLORO-2-METHOXYPYRIDINE)-3-SULFONAMIDO)-2,6-DIFLUOROPHENYL)-N-METHYLIMIDAZO[1,5-A]PYRAZINE-1-CARBOXAMIDE AND METHODS FOR USING THE SAME” (HIBERCELL, INC., priority 2023, published 2026).

As usually defined, the bioavailability is the share of a dose that reaches the circulation, judged against a reference dose that is usually intravenous. A low value points to little systemic uptake. A word on the Solubility: it is the dissolved amount per volume that the medium holds. A word on the Tmax: it is the time from dosing to the highest level.

Data set [1] is described as follows: Pharmacokinetic study of HC-7366 via oral (PO) administration of different formulations in beagle dogs. Format: in vivo. The conditions noted are these: dog, plasma, 7.5 mg/kg, PO 7.5 mpk, male beagle dogs. On the procedure:
10 mL of 0.001 N HCl was used to wash the gavage catheter for each animal.

Data set [2] can be described thus: Slurry study of potassium salt Form III in organic solvents and water (XRPD). The class given is physicochemical. The note with it: for Result at 3 days (XRPD): slurry in THF.
The nature of data set [3]: Mechanical (grinding) and tableting treatment of Form III of the potassium salt (XRPD). The class given is physicochemical. On the procedure: Form III of the potassium salt was ground manually (e.g., using a mortar and pestle) for 5 minutes. The ground sample was then analyzed by XRPD. No change in the crystal form was observed.
Tableting treatment of Form III of the potassium salt was conducted at 35 MPa pressure for 10 seconds using a tablet machine (HY-12, Tianjin Tianguang Optical Instrument Co., Ltd). The resulting solid was analyzed by XRPD. No change in the crystal form was observed after the tableting treatment. However, the crystallinity of Form III of the potassium salt decreased after the pressure test.

The nature of data set [4]: Solubility testing in organic solvents and water (visual, room temperature). Format: physicochemical.
Data set [5] in a line: Dynamic vapor sorption (DVS). The class given is physicochemical. The conditions noted are these: for DVS weight gain: 25° C., listed as Form III of the potassium salt. Here is the method: Moisture sorption/desorption data was collected on a Vsorp Dynamic Moisture Sorption Analyzer (ProUmid GmbH & Co. KG, Germany). The sample was placed into a tared sample chamber and automatically weighed.
• Equilibrium Condition: 0.01%/40 min • Time between weighing cycles: 10 minutes • Minimum time per climate cycle: 50 minutes • Maximum time per climate cycle: 2.0 hour • Balanced condition: 25° C. at 60% […] for 4 hours • Sample temperature: 25° C. • Adsorption: 70, 80, 90 • Desorption: 80, 70, 60, 50, 40, 30, 20, 10, 0 • Adsorption: 10, 20, 30, 40, 50, 60

Structures can show the parent of a compound that is named as a salt. Where two headings read alike, the source gives them in different places.

In the case of `CNC(=O)c1ncn2cc(-c3c(F)ccc(NS(=O)(=O)c4cc(Cl)cnc4OC)c3F)ncc12` [Potassium salt Form III, 6-(3-((5-chloro-2-methoxypyridine)-3-sulfonamido)-2,6-difluorophenyl)-N-methylimidazo[1,5-a]pyrazine-1-carboxamide], the bioavailability in data set [1] (in a capsule, n=3) was approximately 50%. The “Result at 3 days (XRPD)” value in data set [2] (25° C.) and in data set [2] (50° C.) was “Potassium salt Form III” throughout. Besides, in data set [2] (slurry in Water, 25° C., 5 days, repeated aqueous slurry experiments), the “Result (XRPD)” value is given as “Potassium salt Form III (5 days)”. Moreover, in data set [3] (after tableting treatment at 35 MPa pressure for 10 seconds), the Crystallinity entry is recorded as “decreased”. Also, the “Change in the crystal form (XRPD)” value in data set [3] (ground manually for 5 minutes) and in data set [3] (tableting treatment at 35 MPa pressure for 10 seconds) was “No change” each time. For the same molecule, the Solubility was approximately 500 µg/mL in data set [4] (Acetone, listed as Form III of the Potassium Salt); less than 100 µg/mL in data set [4] (BuOH, 24 °C, organic solvent or mixture, thermodynamic from solid, BuOH, read-out: Solubility); less than 100 µg/mL in data set [4] (DCM, listed as Form III of the Potassium Salt); more than 180000 µg/mL in data set [4] (DMSO, 24 °C, organic solvent or mixture, thermodynamic from solid, DMSO, read-out: Solubility); more than 180000 µg/mL in data set [4] (DMSO, listed as Form III of the Potassium Salt); less than 100 µg/mL in data set [4] (EtOAc, listed as Form III of the Potassium Salt). Besides, the Solubility in data set [4] (EtOH, listed as Form III of the Potassium Salt) is approximately 4000 µg/mL; in data set [4] (H2O (water), listed as Form III of the Potassium Salt), approximately 1000 µg/mL; in data set [4] (IPA, listed as Form III of the Potassium Salt) it was less than 100 µg/mL; in data set [4] (IPAc, listed as Form III of the Potassium Salt), less than 100 µg/mL; in data set [4] (MEK, listed as Form III of the Potassium Salt), less than 100 µg/mL; in data set [4] (MTBE, 24 °C, organic solvent or mixture, thermodynamic from solid, MTBE, read-out: Solubility) it was less than 100 µg/mL. Also, the Solubility in data set [4] (MeCN, listed as Form III of the Potassium Salt) was less than 100 µg/mL; in data set [4] (MeOH, listed as Form III of the Potassium Salt), more than 40000 µg/mL; in data set [4] (MeOH, listed as Form III of the potassium salt), more than 40000 µg/mL; in data set [4] (THF, listed as Form III of the Potassium Salt), less than 100 µg/mL; in data set [4] (heptane, 24 °C, organic solvent or mixture, thermodynamic from solid, Heptane, read-out: Solubility), less than 100 µg/mL. The DVS weight gain result is given as “around 0.18%” in data set [5] (0 to 80% relative humidity), approximately 0.23% in data set [5] (0 to 90% relative humidity) and “around 0.13%” in data set [5] (60 to 80% relative humidity). Further, in data set [5] (class by weight gain to 80% relative humidity), the “Hygroscopicity (DVS)” value is listed as “non-hygroscopic (non-hygroscopic may be defined as a <0.2% weight gain to 80% relative humidity)”.

For `CNC(=O)c1ncn2cc(-c3c(F)ccc(NS(=O)(=O)c4cc(Cl)cnc4OC)c3F)ncc12` [HC-7366-K, 6-(3-((5-chloro-2-methoxypyridine)-3-sulfonamido)-2,6-difluorophenyl)-N-methylimidazo[1,5-a]pyrazine-1-carboxamide], in data set [1], the Tmax was determined as 4 h.
